Results taken from US20260176232A1, “PROBENECID COMPOUNDS FOR THE TREATMENT OF INFLAMMASOME-MEDIATED DERMATOLOGICAL CONDITIONS” (Bacainn Biotherapeutics, Ltd., priority 2022, published 2026).

Tests used:
[1] = target: T1, NLRP3 (Mus musculus, UniProt Q8R4B8); test: NLRP3-induced IL-1β secretion from iBMDMs, photo-affinity probes; assay type: cell-based; settings: data not shown
T1 construct: endogenous in cells; host or cells: iBMDMs
From the text: To verify interaction with target proteins, a photo-affinity labeling strategy (MacKinnon+Taunton, 2009) was developed where two modified versions of ADSO32 (1) containing an alkyne photoactivatable moiety linked with a PEG550 moiety to allow visualization (FIG. 9A) termed ADS165; and (2) ADSO32 linked with a diazirine photo-affinity label, (FIG. 9B) termed ADS167 were synthesized. Both photo-affinity labels covalently cross-link to molecular targets when exposed to ultraviolet light (365 nm).

[2] = tested on: NLRP3; test: D4D8T immunoprecipitation of NLRP3 from photo-labelled iBMDMs (FIG. 9D); settings: ADS165, ADS167 1 mM; MCC 50 μM; UV 365 nm 30 mins
[3] = tested on: Recombinant NLRP3; test: Photo-affinity labelling of recombinant NLRP3, anti-PEG immunoblot (FIG. 9C); assay type: binding; settings: pre-incubation 20 mins, UV 365 nm, then ADS165
[4] = target: T2, recombinant full length NLRP1 (Homo sapiens, UniProt Q9C000); test: Photo-affinity labelling of recombinant full length NLRP1, anti-PEG immunoblot (FIG. 9E); assay type: binding; settings: pre-incubation, UV 365 nm, then ADS165
T2 sequence (Q9C000 1-1473): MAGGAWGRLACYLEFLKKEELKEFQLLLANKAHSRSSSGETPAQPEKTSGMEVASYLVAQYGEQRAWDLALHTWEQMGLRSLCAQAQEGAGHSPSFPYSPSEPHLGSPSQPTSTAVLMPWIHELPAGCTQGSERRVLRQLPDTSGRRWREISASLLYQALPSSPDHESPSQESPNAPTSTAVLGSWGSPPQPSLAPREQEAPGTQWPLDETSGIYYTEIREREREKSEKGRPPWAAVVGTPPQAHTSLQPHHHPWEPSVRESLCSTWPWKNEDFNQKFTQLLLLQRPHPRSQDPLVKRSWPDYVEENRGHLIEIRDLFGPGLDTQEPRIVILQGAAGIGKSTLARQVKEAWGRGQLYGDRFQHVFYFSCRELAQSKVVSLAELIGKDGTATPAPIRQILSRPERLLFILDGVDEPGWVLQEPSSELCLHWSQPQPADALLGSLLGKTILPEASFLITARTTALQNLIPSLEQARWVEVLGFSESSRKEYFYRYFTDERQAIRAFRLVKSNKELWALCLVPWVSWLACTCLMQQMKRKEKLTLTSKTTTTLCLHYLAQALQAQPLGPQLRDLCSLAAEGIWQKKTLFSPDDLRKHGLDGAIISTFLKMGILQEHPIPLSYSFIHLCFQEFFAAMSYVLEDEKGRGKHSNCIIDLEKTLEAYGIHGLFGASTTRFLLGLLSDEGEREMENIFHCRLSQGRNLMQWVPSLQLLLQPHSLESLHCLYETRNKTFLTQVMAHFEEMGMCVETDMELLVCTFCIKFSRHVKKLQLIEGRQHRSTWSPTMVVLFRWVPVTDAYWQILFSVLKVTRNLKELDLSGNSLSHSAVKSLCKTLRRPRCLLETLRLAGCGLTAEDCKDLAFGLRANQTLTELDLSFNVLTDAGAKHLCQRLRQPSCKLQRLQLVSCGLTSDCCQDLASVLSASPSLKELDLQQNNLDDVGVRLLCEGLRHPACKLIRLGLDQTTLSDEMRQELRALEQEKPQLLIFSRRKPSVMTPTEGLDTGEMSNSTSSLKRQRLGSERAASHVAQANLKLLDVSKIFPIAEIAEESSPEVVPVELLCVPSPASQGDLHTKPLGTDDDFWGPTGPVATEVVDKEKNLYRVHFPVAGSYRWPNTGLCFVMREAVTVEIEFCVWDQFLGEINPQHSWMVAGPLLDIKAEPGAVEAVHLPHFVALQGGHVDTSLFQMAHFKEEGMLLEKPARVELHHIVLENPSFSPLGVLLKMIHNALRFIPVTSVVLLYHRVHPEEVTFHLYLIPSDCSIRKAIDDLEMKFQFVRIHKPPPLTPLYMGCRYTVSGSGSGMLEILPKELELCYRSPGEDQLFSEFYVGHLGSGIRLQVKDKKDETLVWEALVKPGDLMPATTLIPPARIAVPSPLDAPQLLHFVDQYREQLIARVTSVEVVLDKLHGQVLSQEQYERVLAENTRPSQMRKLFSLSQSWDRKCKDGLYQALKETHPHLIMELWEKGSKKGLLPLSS
Method: FIGS. 9A-9F are a series of panels showing ADS032 (also referred to herein as “BT032”) directly binds to NLRP1 and NLRP3. FIGS. 9A and 9B are chemical structures of ADS165 and ADS167. […] ADS165 was then co-incubated for 20 mins and UV treated for 20 mins to cross-link associated compound and protein. Protein was separated by SDS-PAGE and immunoblotted (IB) with anti-PEG to visualize ADS165-linked protein. FIG. 9D: iBMDM cells stably expressing NLRP3-Flag were treated for 30 mins with ADS165, ADS167 (1 mM) or MCC955 (50 μM) for 30 mins, and irradiated with UV 365 nm for 30 mins. Cells were lysed with buffer and immunoprecipitation (IP) of NLRP3 performed with α-NLRP3 (D4D8T) antibody. Levels of precipitated (IP) and total cellular lysate (Input) NLRP3 were determined by immunoblotting with α-NLRP3 (Cryo-2) antibody. FIG. 9F: NLRP1-Flag was expressed in HEK293T cells (1×10^6) for 20 h and treated with ADS165 (1 mM) for 30 mins where indicated, followed by UV 365 nm for a further 30 mins. Cells were lysed with lysis buffer and […] immunoprecipitated with α-Flag (M2) antibody. Proteins were separated by SDS-PAGE and ADS165-linked NLRP1 identified by immunoblot with a-PEG, while total precipitated NLRP1 visualized by immunoblot with α-NLRP1 and total cell lysate by α-Flag. Data shown is representative of three independent experiments.
Next, it was determined whether ADSO32 could interact with NLRP1. […] To further investigate this interaction, ectopically expressed Flag-tagged NLRP1 was immunoprecipitated from cell lysates pretreated or not with ADS165 and exposed to UV light.

[5] = tested on: NLRP1 inflammasome; test: IL-1β secretion in macrophages challenged with L18-MDP (FIG. 7); assay type: cell-based, human; settings: 20, 100, 350 μM, L18-MDP 100 μg/mL 16 hours, secreted IL-1β
From the text: (§1) In vitro stimulation of human macrophages.

[6] = target: NLRP3 inflammasome (Mus musculus, UniProt Q8R4B8); test: IL-1β secretion (ELISA) in LPS-primed iBMDMs stimulated with silica or nigericin; assay type: cell-based, murine (C57BL/6); parameters: endogenous in cells; host or cells: immortalized wild-type C57BL/6 bone-marrow derived macrophages (iBMDMs), LPS-primed; settings: compared with probenecid in DMSO or PBS
NLRP3 inflammasome, sequence (Q8R4B8 whole entry): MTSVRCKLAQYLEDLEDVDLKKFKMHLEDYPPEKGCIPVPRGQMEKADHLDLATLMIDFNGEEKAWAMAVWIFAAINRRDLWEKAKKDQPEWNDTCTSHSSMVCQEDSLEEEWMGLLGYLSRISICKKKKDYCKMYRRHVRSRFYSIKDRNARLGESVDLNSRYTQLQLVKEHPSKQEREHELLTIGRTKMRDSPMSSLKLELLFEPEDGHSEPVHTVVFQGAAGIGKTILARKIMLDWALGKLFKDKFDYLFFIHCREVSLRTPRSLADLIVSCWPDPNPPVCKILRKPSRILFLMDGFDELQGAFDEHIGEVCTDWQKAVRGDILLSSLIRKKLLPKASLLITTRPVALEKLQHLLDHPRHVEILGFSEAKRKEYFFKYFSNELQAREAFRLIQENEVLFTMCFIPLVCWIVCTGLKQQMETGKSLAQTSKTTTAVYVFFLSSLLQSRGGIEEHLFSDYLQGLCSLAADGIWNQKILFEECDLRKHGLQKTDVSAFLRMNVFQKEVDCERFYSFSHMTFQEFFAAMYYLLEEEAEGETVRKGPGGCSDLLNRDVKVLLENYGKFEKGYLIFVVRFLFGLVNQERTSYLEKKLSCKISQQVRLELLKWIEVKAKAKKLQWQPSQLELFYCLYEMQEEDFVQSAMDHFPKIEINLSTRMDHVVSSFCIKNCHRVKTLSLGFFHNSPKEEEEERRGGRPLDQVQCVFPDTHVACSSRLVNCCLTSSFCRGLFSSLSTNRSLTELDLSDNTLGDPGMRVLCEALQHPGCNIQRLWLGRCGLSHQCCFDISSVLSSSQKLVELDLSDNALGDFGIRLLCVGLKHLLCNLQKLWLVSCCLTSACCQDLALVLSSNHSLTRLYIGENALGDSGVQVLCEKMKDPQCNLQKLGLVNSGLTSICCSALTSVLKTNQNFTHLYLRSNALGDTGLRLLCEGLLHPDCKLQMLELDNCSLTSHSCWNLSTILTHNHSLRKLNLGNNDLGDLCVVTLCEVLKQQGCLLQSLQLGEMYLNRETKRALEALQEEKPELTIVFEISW
Method: In vitro stimulation of murine macrophages. Immortalized wild-type C57BL/6 bone-marrow derived macrophages (iBMDMs) were grown in DMEM supplemented with 10% heat inactivated FBS and 2 mM glutamine. iBMDMs were seeded in 96-well plates 24 hours prior incubation with lipopolysaccharide (LPS; 100 ng/mL) for 3 hours. Cells were then incubated with a control probenecid compound (probenecid dissolved in DMSO (Prob/D), probenecid dissolved in PBS (Prob/P)) or one of the probenecid analogs of the present technology (BT032, BT132, BT133, BT134, BT135, BT136, BT137, BT138, BT139, or BT140) at concentrations of 300 μM, 150 μM, 30 μM, or 3 μM 1 hour prior to stimulation with NLRP3 inflammasome activators, silica ([…]) or nigericin (6 μM). After an additional 6 hours, cell supernatants were collected and levels of IL-1β were quantified by ELISA. These experiments were run in triplicate three times.

[7] = tested on: NLRP1 inflammasome; test: IL-1β secretion in macrophages challenged with L18-MDP (FIG. 4C); assay type: cell-based, human; settings: BT032 20, 100 μM; MCC950 5 μM; L18-MDP 100 μg/ml 16 h
From the text: as §1

T1 sequence (Q8R4B8 whole entry): as above

CCCCN(CCC)S(=O)(=O)c1ccc(-c2ccc(CCCC(=O)NCc3ccc(C4(C(F)(F)F)N=N4)cc3)cc2)cc1 [ADS167]
NLRP3-induced IL-1β secretion from iBMDMs [1]: still able to inhibit NLRP3-induced IL-1β secretion | efficacy relative to ADS032 (NLRP3-induced IL-1β secretion) [1]: reduced efficacy as compared to ADS032 | D4D8T-mediated NLRP3 immunoprecipitation [2]: reduced the efficacy of D4D8T-mediated NLRP3 immunoprecipitation | competition with ADS165 labelling of NLRP3 [3]: inhibited the ability of ADS165 to label NLPR3 | competition with ADS165 interaction with NLRP1 [4]: could ablate interaction

CCCN(CCC)S(=O)(=O)c1ccc(N2CCC(CCCC(=O)O)CC2)cc1 [BT135, 4-(1-(4-(N,N-dipropylsulfamoyl)-phenyl)piperidin-4-yl)butanoic acid]
NLRP1 (L18-MDP)-induced inflammasome activation [5]: dose-dependently inhibited

CCCN(CCC)S(=O)(=O)c1ccc(-c2nc(CCCC(=O)O)cs2)cc1 [BT136, 4-(2-(4-(N,N-dipropylsulfamoyl)phenyl)thiazol-4-yl)butanoic acid]
potency versus control probenecid compounds (IL-1β secretion) [6]: more potent than the control probenecid compounds | NLRP1 (L18-MDP)-induced inflammasome activation [5]: dose-dependently inhibited

CC(C)(O)c1coc(S(=O)(=O)NC(=O)Nc2c3c(cc4c2CCC4)CCC3)c1 [MCC950, reference compound]
NLRP1 (L18-MDP)-induced inflammasome activation [7]: no impact | competition with ADS165 interaction with NLRP1 [4]: no effect
